Reference: US20050266105A1, “Compositions comprising natural agents for the treatment of HIV-associated opportunistic infections and complications and methods for preparing and using compositions comprising natural agents” (priority 2004, published 2005)
In brackets after ≈: the same amount, converted by molar mass. Where two headings read alike, the source gives them in different places.

Key:
HIV-1RF = test: HIV-1 cytoprotection assay; assay type: cell-based
Method: ICBG plant samples were tested using an HIV-1 cytoprotection assay. This assay is based on the premise that HIV-1RF is cytopathic and kills CEM-SS cells as it replicates in the culture. Compounds that inhibit HIV-1 replication are therefore able to reduce the amount of viral cytopathic effect that occurs in the culture. As a result, compound activity is measured by determining the amount of cell viability remaining in the cultures following the six day incubation period. The % reduction in viral cytopathic effect is a direct measure of compound activity. The greater the % reduction in viral cytopathic effect, the greater the antiviral activity of the compound. […] Macroscopic observation of the cells in each well of the microtiter plate confirmed the cytotoxicity results obtained following staining of the cells with the MTS metabolic dye.

CEM-SS cells = test: Compound cytotoxicity (cell viability in the absence of virus, MTS); assay type: cell-based; conditions: read-out: TC50 (the source's name)
Method: Similarly, compound cytotoxicity is measured as the % reduction in cell viability resulting from incubation of the compound with the cells (in the absence of virus). The greater the reduction in cell viability, the greater the cytotoxicity of the compound. […] Macroscopic observation of the cells in each well of the microtiter plate confirmed the cytotoxicity results obtained following staining of the cells with the MTS metabolic dye.

MRSA = conditions: cited from earlier work

Row | IC50 (HIV-1RF; HIV-1RF in CEM-SS cells, six day incubation) [nM] | Compound | Antiviral activity (comments) (HIV-1RF; HIV-1RF in CEM-SS cells, at concentrations tested) | AI (Antiviral Index) (HIV-1RF; TC50 / IC50) | CC50 (CEM-SS cells) [nM] | MIC (MRSA; MRSA strain 1199-B) [µg/mL] | MIC (MRSA; MRSA strain XU212) [µg/mL]
1 | < 2 | Cc1cn([C@H]2C[C@H](N=[N+]=[N-])[C@@H](CO)O2)c(=O)[nH]c1=O [AZT] | expected level of antiviral activity | >320 | > 500 |  | 
2 |  | CC[C@H]1OC(=O)[C@H](C)[C@@H](O[C@H]2C[C@@](C)(OC)[C@@H](O)[C@H](C)O2)[C@H](C)[C@@H](O[C@@H]2O[C@H](C)C[C@H](N(C)C)[C@H]2O)[C@](C)(O)C[C@@H](C)C(=O)[C@H](C)[C@@H](O)[C@]1(C)O [Erythromycin] |  |  |  | 2 (≈ 2.73 µM) | 4096 (≈ 5580 µM)
3 |  | CCn1cc(C(=O)O)c(=O)c2cc(F)c(N3CCNCC3)cc21 [Norfloxacin] |  |  |  | 64 (≈ 200 µM) | 8 (≈ 25.1 µM)
